# In patent US11415513B2, “Method for determining the degree of sensitivity of a strain of fungus to an antifungal agent” (UNIVERSITE GRENOBLE ALPES, priority 2015, dated 2022):
# Read-outs that look alike come from different tables or passages of the source.
# Key:
# [1] = test system: strain Tg5 of C. glabrata; assay: Etest method (MIC); assay type: cell-based, Candida glabrata; conditions: for MIC: Nakaseomyces glabratus, read-out: MIC (Etest method)
# Experimental: The Etest® method is a commercial test for determining the sensitivity of a strain, most frequently used routinely in clinical mycology laboratories.
# The Etest® tests were performed according to the manufacturer's instructions. After distributing a standardised Mac Farland 0.5 inoculum (equivalent of […]) over plates of RPMI medium, said plates were incubated for 24 h at 35° C., with the exception of C. glabrata in which case the incubation was extended to 48 h so as to be able to determine the minimum inhibitory concentration (MIC).
# The results of the MICs obtained were interpreted in accordance with the tables of the CLSI (Clinical and Laboratory Standards Institute) and/or of EUCAST (European Committee on Antimicrobial Susceptibility Testing) (Arendrup M C, Cuenca-Estrella M, Lass-Flörl C, Hope W W (2014) Breakpoints for antifungal agents: an update from EUCAST focussing on echinocandins against Candida spp and triazoles against Aspergillus spp. Drug Resist Updat 16(6):81-95. doi:10.1016/j.drup.2014.01.001) (cf. Table 2 taken from Maubon D, Garnaud C, Calandra T, et al. (2014) Resistance of Candida spp. to antifungal drugs in the ICU: where are we now? Intensive Care Med. doi: 10.1007/s00134-014-3404-7) which list the clinical thresholds (CBPs) for the most common species of yeast of the genus Candida as a function of different antifungal agents, or according to the table of epidemiological thresholds (ECVs).
# [2] = test system: strain Tg5 of C. glabrata; assay: Sensitivity test by HCA microscopy (chitin level, Calcofluor White); assay type: cell-based, Candida glabrata; conditions: 6.5 h at 35° C., RPMI medium; for decrease in the chitin level in the wall of the cells: vs cells in the absence of antifungal agent, concentration gradient of Table 1
# Experimental: (§1) The strains of Candida were incubated beforehand at 30° C. overnight in a yeast extract medium—peptone dextrose (YPD) (1% bacto peptone, 0.5% yeast extract, 2% glucose, 1.5% agar).
# (§2) Yeast colonies were then removed from YPD medium plates and suspended in a 0.9% NaCl saline solution, in which the cell concentration was estimated by optical microscopy using Kova counting slides.
# (§3) A dilution was performed to obtain 15 ml of an inoculum at 3×10^6 CFU/ml, in a synthetic complete (SC) medium at pH 7 (2% glucose, 0.5% ammonium sulfate, 0.17% nitrogen-containing yeast base, 0.2% synthetic complete mixture, and 10% HEPES 1.5M pH 7.2) for C. albicans, C. parapsilosis, C. tropicalis and C. krusei, and in a solution of RPMI 1640 pH 7.3 (10% HEPES 1M pH 7.2) for C. glabrata, so as to reduce the formation of septa and clusters.
# (§4) 1 ml of inoculum was then added to 2 ml of antifungal solution prepared in an SC or RPMI medium depending on the species of fungus, so as to obtain a final concentration of yeast of 10^6 CFU/ml and the desired concentration of antifungal agent according to table 1.
# (§5) After homogenisation, the cultures were placed at 30° C. at 200 rpm, with the exception of cultures of C. glabrata, which were placed at 35° C. at 200 rpm, and incubated for a period of 6.5 h or 24 h.
# (§6) After incubation, 100 μl of the culture of fungi obtained above were transferred in triplicate to 96-well plates, and 2.5 μl of Calcofluor White (CFW) were added to each well so as to mark the chitin of the cell walls of the yeasts.
# A step of acquiring images by automated fluorescence microscopy (ScanR screening station, Olympus), using a 40× lens and a CFW filter, made it possible to obtain 30 images per well so as to capture enough cells to provide statistically significant data. These images were analysed by software (ScanR analysis software, Olympus). Firstly, the background noise was processed so as to improve the contrast between the fluorescence of the yeasts and background noise. A pixel threshold was then defined. Segmentation of the fluorescent elements present in each of the acquired images was then performed using an algorithm predefined in the software, making it possible to determine the limit of each element on the basis of the fluorescence intensity of said element. […]
# Each element then corresponding to a yeast, it was thus possible, on the basis of these elements predefined beforehand, to define the fluorescence intensity for each of the yeasts, this intensity being directly correlated with the chitin content of their wall. […]
# (§7) The chitin level in the cell wall of the yeasts was then measured by […] analysis (HCA) microscopy, as described in paragraph II of the Examples section, in triplicate for each condition of concentration of fluconazole and without fluconazole. […]
# [3] = test system: strain GRE32 of C. krusei; assay: Sensitivity test by HCA microscopy (chitin level, Calcofluor White; cell count); assay type: cell-based, Candida krusei
# Experimental: as §1, §2, §3, §4, §5, §6
# A step of acquiring images by automated fluorescence microscopy (ScanR screening station, Olympus), using a 40× lens and a CFW filter, made it possible to obtain 30 images per well so as to capture enough cells to provide statistically significant data. These images were analysed by software (ScanR analysis software, Olympus). Firstly, the background noise was processed so as to improve the contrast between the fluorescence of the yeasts and background noise. A pixel threshold was then defined. Segmentation of the fluorescent elements present in each of the acquired images was then performed using an algorithm predefined in the software, making it possible to determine the limit of each element on the basis of the fluorescence intensity of said element. A size parameter was then applied to select the yeasts and eliminate the aggregates and the fluorescent debris.
# Each element then corresponding to a yeast, it was thus possible, on the basis of these elements predefined beforehand, to define the fluorescence intensity for each of the yeasts, this intensity being directly correlated with the chitin content of their wall.
# On the basis of said defined elements, it was also possible to automatically count the yeasts,
# The strain GRE32 of C. krusei was cultivated as described in paragraph I of the Examples section so as to obtain an inoculum at 3×10^6 CFU/ml in 15 ml of SC medium.
# 2 ml of fluconazole solution prepared in the SC medium were then added to 1 ml of this inoculum so as to obtain a final concentration of yeast of 10^6 CFU/ml and of 128 μg/ml in fluconazole. […]
# as §7
# [4] = RPMI medium plates, 35° C., incubation extended to 48 h for C. glabrata
Structure (SMILES),"MIC [1, 4] [µg/mL]","phenotype by Etest MIC, interpretation by the EUCAST and/or CLSI tables [1, 4]",phenotype of the strain with respect to the antifungal agent (HCA) [2],decrease in the chitin level in the wall of the cells [2],"phenotype of the strain with respect to the antifungal agent (HCA) ([3]; 6.5 h at 30° C., SC medium)","decrease in the chitin level in the wall of the cells ([3]; vs cells in the absence of antifungal agent, 6.5 h at 30° C., SC medium, concentration gradient of Table 1)",MIC ([1]; 48 h) [µg/mL],phenotype of the strain with respect to the antifungal agent (HCA) ([3]; 24 h at 30° C.),"decrease of the number of cells ([3]; vs cells in the absence of antifungal agent, 24 h at 30° C.)","increase in the chitin level in the wall of the cells ([3]; vs cells in the absence of antifungal agent, 24 h at 30° C., inoculum in SC medium, antifungal solution in RPMI medium, concentration gradient of Table 1)"
OC(Cn1cncn1)(Cn1cncn1)c1ccc(F)cc1F [fluconazole],> 256,resistant,resistant (an increase in the chitin level having a value less than 10% or a decrease in the chitin level of less than 20% or an unchanged chitin level),less than 20%,resistant (an increase in the chitin level having a value less than 10% or a decrease in the chitin level of less than 20% or an unchanged chitin level),less than 20%,–,–,–,–
C[C@@H](c1ncncc1F)[C@](O)(Cn1cncn1)c1ccc(F)cc1F [voriconazole],–,resistant,resistant (an increase in the chitin level having a value less than 10% or a decrease in the chitin level of less than 20% or an unchanged chitin level),less than 20%,–,–,8,intermediate (an increase in the chitin level having a value of from 10% to a value less than 20%),less than 0.3 log,greater than or equal to 20%
